assay: hexadecane/PBD-BODIPY co-autoxidation, inhibition by antioxidant; details: hexadecane/PBD-BODIPY co-autoxidations at 70° C. in PhCl
Procedure: FIG. 1 is a graph depicting co-autoxidation of 2.8M hexadecane and 10 μM PBD-BODIPY at 70° C. in PhCl, initiated by 87 mM tBu2O2, and inhibited by 0.6 μM 1, 2, or 9.
Table 1. […] Relative to other antioxidants, autoxidation was inhibited poorly in the catalytic phase. Dye consumption prevented accurate determination of the stoichiometry.

Structure (SMILES)	Inhibition rate constant kinh	Turnover in the catalytic phase (footnote a to n)	Stoichiometry n
CCCCCCCc1nc(C)c2c(n1)Nc1ccccc1S2 [Compound 6, 2-Heptyl-4-methyl-1,3-Diazaphenothiazine]	(3.3 ± 0.2) × 10^5 M^−1s^−1	Inefficient turnover	
c1ccc2c(c1)Nc1ncccc1S2 [Compound 2, 1-Azaphenothiazine]	(2.8 ± 0.1) × 10^5 M^−1s^−1		10 ± 2
c1ccc2c(c1)Nc1ncccc1O2 [Compound 1, 1-Azaphenoxazine]	(6.8 ± 0.2) × 10^5 M^−1s^−1		50 ± 1
c1ccc2c(c1)Nc1ccncc1O2 [Compound 3, 3-Azaphenoxazine]	(1.3 ± 0.2) × 10^5 M^−1s^−1		183 ± 8
COc1ccc2c(n1)Sc1cccnc1N2 [Compound 9, 3-Methoxy-4,9-Diazaphenothiazine]	(5.6 ± 0.3) × 10^5 M^−1s^−1		15 ± 2
c1ccc2c(c1)Nc1ccncc1S2 [Compound 4, 3-Azaphenothiazine]	(5.9 ± 0.5) × 10^5 M^−1s^−1		46 ± 3
CCCCCCCc1nc(C)c2c(n1)Nc1ccccc1O2 [Compound 5, 2-Heptyl-4-methyl-1,3-Diazaphenoxazine]	(9.0 ± 0.3) × 10^5 M^−1s^−1		109 ± 4
CCN(CC)c1ncc2c(n1)Nc1ccccc1S2 [Compound 10, 2-Diethylamino-1,3-Diazaphenothiazine]	(2.4 ± 0.4) × 10^6 M^−1s^−1		11 ± 0.7
CCN(CC)c1ncc2c(n1)Nc1ccccc1S2 [Compound 7, 2-Diethylamino-1,3-Diazaphenothiazine]	(2.0 ± 0.1) × 10^5 M^−1s^−1		4 ± 0.4
c1ccc2c(c1)Nc1nc(N3CCCC3)ncc1S2 [Compound 8, 2-(Pyrrolidn-1-yl)-1,3-Diazaphenothiazine]	(2.6 ± 0.1) × 10^5 M^−1s^−1		6 ± 0.1
